Activity calls are given as the source filed them. The calls are words filed in the database; no cut-off is given here.
Columns and labels:
[1] = system: MKN-28; experiment: Growth inhibition of human MKN28 cells after 48 hrs by sulforhodamine B-based colorimetric assay; type: functional; details: MKN-28, 48 h
[2] = system: HCT-116; experiment: Growth inhibition of human HCT116 cells after 48 hrs by sulforhodamine B-based colorimetric assay; type: functional, cell-based; details: HCT-116, 48 h
[3] = system: HT-29; experiment: Growth inhibition of human HT-29 cells after 48 hrs by sulforhodamine B-based colorimetric assay; type: functional; details: HT-29, 48 h
[4] = system: NCI-H23; experiment: Growth inhibition of human NCI-H23 cells after 48 hrs by sulforhodamine B-based colorimetric assay; type: functional; details: NCI-H23, 48 h
[5] = system: MCF7; experiment: Growth inhibition of human MCF7 cells after 48 hrs by sulforhodamine B-based colorimetric assay; type: functional, cell-based; details: MCF7, 48 h
[6] = system: SF-295; experiment: Growth inhibition of human SF295 cells after 48 hrs by sulforhodamine B-based colorimetric assay; type: functional; details: SF-295, 48 h
[7] = system: RXF 631; experiment: Growth inhibition of human RXF631L cells after 48 hrs by sulforhodamine B-based colorimetric assay; type: functional; details: RXF 631, 48 h
[8] = system: OVCAR-8; experiment: Growth inhibition of human OVCAR8 cells after 48 hrs by sulforhodamine B-based colorimetric assay; type: functional; details: OVCAR-8, 48 h
[9] = molecular target: DNA topoisomerase 2-alpha (Homo sapiens, UniProt P11388); experiment: Inhibition of human topoisomerase-2 alpha-mediated kinetoplast DNA decatenation at 100 to 400 uM after 30 mins by ethidium bromide staining based agarose gel electrophoresis
[10] = system: HCT-15; experiment: Growth inhibition of human HCT15 cells after 48 hrs by sulforhodamine B-based colorimetric assay; type: functional; details: HCT-15, 48 h
[11] = system: SNB-78; experiment: Growth inhibition of human SNB78 cells after 48 hrs by sulforhodamine B-based colorimetric assay; type: functional; details: SNB-78, 48 h
[12] = system: SNB-75; experiment: Growth inhibition of human SNB75 cells after 48 hrs by sulforhodamine B-based colorimetric assay; type: functional; details: SNB-75, 48 h
[13] = system: LOX IMVI; experiment: Growth inhibition of human LOXIMVI cells after 48 hrs by sulforhodamine B-based colorimetric assay; type: functional
[14] = system: OVCAR-3; experiment: Growth inhibition of human OVCAR3 cells after 48 hrs by sulforhodamine B-based colorimetric assay; type: functional; details: OVCAR-3, 48 h
[15] = system: SF-539; experiment: Growth inhibition of human SF539 cells after 48 hrs by sulforhodamine B-based colorimetric assay; type: functional; details: SF-539, 48 h
[16] = system: MKN-1; experiment: Growth inhibition of human MKN1 cells after 48 hrs by sulforhodamine B-based colorimetric assay; type: functional; details: MKN-1, 48 h
[17] = system: MKN-7; experiment: Growth inhibition of human MKN7 cells after 48 hrs by sulforhodamine B-based colorimetric assay; type: functional; details: MKN-7, 48 h
[18] = Growth inhibition of human BSY1 cells after 48 hrs by sulforhodamine B-based colorimetric assay; type: functional; details: BSY-1, 48 h
[19] = system: NCI-H460; experiment: Growth inhibition of human NCI-H460 cells after 48 hrs by sulforhodamine B-based colorimetric assay; type: functional; details: NCI-H460, 48 h
[20] = Growth inhibition of human HBC5 cells after 48 hrs by sulforhodamine B-based colorimetric assay; type: functional; details: HBC5, 48 h
[21] = system: OVCAR-4; experiment: Growth inhibition of human OVCAR4 cells after 48 hrs by sulforhodamine B-based colorimetric assay; type: functional; details: OVCAR-4, 48 h
[22] = system: NCI-H226; experiment: Growth inhibition of human NCI-H226 cells after 48 hrs by sulforhodamine B-based colorimetric assay; type: functional; details: NCI-H226, 48 h
[23] = system: PC-3; experiment: Growth inhibition of human PC3 cells after 48 hrs by sulforhodamine B-based colorimetric assay; type: functional; details: PC-3, 48 h
[24] = molecular target: T1, Protein deacetylase HDAC6 (Mus musculus, UniProt Q9Z2V5); experiment: Inhibition of recombinant mouse HDAC6 expressed in HEK293T cells co-expressing mouse HDA2 using Ac-KGLGK(Ac)-MCA as substrate after 30 mins in presence of DTT by fluorescence assay
T1 sequence (Q9Z2V5 whole entry): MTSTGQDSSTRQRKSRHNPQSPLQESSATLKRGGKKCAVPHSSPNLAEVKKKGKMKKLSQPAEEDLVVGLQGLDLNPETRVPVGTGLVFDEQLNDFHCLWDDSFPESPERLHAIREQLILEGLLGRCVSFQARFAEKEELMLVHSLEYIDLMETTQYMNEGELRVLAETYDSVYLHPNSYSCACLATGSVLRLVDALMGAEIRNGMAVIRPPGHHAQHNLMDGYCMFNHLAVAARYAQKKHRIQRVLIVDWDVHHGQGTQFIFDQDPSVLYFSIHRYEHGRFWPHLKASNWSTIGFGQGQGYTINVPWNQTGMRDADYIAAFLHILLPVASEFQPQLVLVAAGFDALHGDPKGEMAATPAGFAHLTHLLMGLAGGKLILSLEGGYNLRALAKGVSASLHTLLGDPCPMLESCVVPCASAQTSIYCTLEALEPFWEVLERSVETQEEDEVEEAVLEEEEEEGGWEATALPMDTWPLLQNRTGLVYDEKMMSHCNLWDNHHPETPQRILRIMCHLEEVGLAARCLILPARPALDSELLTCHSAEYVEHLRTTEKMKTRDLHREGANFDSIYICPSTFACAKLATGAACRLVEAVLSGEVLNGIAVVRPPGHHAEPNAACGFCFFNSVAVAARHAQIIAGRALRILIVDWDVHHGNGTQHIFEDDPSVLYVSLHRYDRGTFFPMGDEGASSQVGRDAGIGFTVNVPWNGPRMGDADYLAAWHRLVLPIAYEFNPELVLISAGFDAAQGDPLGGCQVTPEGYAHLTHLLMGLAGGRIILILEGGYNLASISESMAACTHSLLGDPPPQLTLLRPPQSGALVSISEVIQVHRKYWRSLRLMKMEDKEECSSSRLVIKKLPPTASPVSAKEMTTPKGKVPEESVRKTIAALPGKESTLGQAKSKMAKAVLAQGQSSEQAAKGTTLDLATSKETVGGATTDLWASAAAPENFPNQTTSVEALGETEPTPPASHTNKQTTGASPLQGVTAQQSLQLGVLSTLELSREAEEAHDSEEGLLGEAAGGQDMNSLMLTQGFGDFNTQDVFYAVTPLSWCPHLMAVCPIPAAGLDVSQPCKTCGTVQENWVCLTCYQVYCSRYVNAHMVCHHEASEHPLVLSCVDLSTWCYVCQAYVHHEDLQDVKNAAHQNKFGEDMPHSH

[25] = Growth inhibition of human HBC4 cells after 48 hrs by sulforhodamine B-based colorimetric assay; type: functional; details: HBC4, 48 h
[26] = system: DMS-273; experiment: Growth inhibition of human DMS273 cells after 48 hrs by sulforhodamine B-based colorimetric assay; type: functional; details: DMS-273, 48 h
[27] = system: MKN-74; experiment: Growth inhibition of human MKN74 cells after 48 hrs by sulforhodamine B-based colorimetric assay; type: functional; details: MKN-74, 48 h
[28] = system: MDA-MB-231; experiment: Growth inhibition of human MDA-MB-231 cells after 48 hrs by sulforhodamine B-based colorimetric assay; type: functional; details: MDA-MB-231, 48 h

Chain of DNA topoisomerase 2-alpha (P11388 whole entry): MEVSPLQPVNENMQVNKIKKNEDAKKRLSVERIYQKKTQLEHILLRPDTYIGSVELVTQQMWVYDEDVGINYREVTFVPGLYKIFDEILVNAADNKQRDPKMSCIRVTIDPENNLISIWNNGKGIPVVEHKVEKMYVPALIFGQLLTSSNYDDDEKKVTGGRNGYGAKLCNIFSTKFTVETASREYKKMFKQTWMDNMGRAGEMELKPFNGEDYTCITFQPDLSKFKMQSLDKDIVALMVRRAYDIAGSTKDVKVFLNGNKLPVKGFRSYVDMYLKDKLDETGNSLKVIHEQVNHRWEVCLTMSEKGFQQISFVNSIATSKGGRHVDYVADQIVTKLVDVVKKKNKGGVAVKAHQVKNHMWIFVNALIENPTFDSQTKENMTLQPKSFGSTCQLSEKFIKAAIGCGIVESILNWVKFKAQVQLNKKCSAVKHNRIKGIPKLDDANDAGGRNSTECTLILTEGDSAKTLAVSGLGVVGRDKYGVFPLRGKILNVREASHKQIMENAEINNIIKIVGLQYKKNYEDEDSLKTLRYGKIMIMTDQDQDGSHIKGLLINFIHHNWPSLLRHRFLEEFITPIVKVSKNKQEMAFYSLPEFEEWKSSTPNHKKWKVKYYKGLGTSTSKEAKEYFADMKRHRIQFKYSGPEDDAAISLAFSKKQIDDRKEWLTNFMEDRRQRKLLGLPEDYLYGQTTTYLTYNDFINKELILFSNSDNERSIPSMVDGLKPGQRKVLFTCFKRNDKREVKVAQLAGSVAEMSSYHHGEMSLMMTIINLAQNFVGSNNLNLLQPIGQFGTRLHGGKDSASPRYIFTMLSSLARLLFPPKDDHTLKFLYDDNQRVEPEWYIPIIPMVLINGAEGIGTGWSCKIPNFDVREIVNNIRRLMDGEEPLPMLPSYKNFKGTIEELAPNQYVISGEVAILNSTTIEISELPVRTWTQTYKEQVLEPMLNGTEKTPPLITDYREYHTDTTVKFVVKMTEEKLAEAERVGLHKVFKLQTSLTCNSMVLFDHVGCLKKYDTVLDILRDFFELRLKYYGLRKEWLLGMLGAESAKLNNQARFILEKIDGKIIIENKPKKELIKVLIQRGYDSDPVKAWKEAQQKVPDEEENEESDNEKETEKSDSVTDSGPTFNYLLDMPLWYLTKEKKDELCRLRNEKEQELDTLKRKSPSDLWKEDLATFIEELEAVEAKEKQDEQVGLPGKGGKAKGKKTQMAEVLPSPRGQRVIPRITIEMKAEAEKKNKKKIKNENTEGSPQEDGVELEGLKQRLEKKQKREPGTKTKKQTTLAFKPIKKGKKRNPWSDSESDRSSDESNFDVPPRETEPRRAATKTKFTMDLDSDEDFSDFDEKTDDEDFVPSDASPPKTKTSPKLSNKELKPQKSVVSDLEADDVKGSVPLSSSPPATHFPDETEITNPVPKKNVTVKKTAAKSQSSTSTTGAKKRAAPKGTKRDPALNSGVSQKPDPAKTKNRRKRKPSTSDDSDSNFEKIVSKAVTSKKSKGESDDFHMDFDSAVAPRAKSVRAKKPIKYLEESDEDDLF

| Compound | GI50 [1] [µM] | GI50 ([2]; read-out: GI50) [µM] | GI50 ([2]; read-out: pGI50 (converted)) [µM] | GI50 [3] [µM] | GI50 [4] [µM] | GI50 ([5]; read-out: GI50) [µM] | GI50 ([5]; read-out: pGI50 (converted)) [µM] | GI50 [6] [µM] | GI50 [7] [µM] | GI50 [8] [µM] | inhibition [9] | GI50 [10] [µM] | GI50 [11] [µM] | GI50 [12] [µM] | GI50 [13] [µM] | GI50 [14] [µM] | GI50 [15] [µM] | GI50 [16] [µM] | GI50 [17] [µM] | GI50 [18] [µM] | further results |
| --- | --- | --- | --- | --- | --- | --- | --- | --- | --- | --- | --- | --- | --- | --- | --- | --- | --- | --- | --- | --- | --- |
| Cc1cn([C@H]2C[C@H](C3(c4ccc(NC(=O)CCCCCCC(=O)NO)cc4)SCCCS3)[C@@H](CO[Si](C)(C)C(C)(C)C)O2)c(=O)[nH]c1=O | 3.72 | 3.39 | 3.39 | 3.63 | 4.68 | 3.24 | 3.24 | 4.9 | 3.63 | 3.55 | Active | 3.55 | 6.76 | 5.37 | 1.78 | 2.95 | 3.39 | 2.95 | 2.95 | 2.63 | GI50 [19]: 3.98 µM; GI50 [20]: 6.46 µM; GI50 [21]: 3.24 µM; GI50 [22]: 3.89 µM; GI50 [23]: 4.37 µM; IC50 [24]: 0.051 µM; GI50 [25]: 3.89 µM; GI50 [26]: 3.89 µM; GI50 [27]: 4.47 µM; GI50 [28]: 2.51 µM |
| Cc1cn([C@@H]2C[C@H](C3(c4ccc(NC(=O)CCCCCCC(=O)NO)cc4)SCCCS3)[C@@H](CO[Si](C)(C)C(C)(C)C)O2)c(=O)[nH]c1=O | 4.27 | 4.17 | 4.17 | 7.08 | 7.94 | 3.89 | 3.89 | 6.92 | 11.2 | 4.27 | Active | 15.5 | 10 | 5.5 | 2.14 | 3.02 | 4.57 | 4.47 | 3.47 | 2.63 | GI50 [19]: 4.68 µM; GI50 [20]: 6.31 µM; GI50 [21]: 3.98 µM; GI50 [22]: 10.2 µM; GI50 [23]: 4.57 µM; IC50 [24]: 0.044 µM; GI50 [25]: 4.17 µM; GI50 [26]: 3.98 µM; GI50 [27]: 5.75 µM; GI50 [28]: 3.09 µM |

Reference: ChEMBL document CHEMBL4219122, “Synthesis and biological evaluation of histone deacetylase and DNA topoisomerase II-Targeted inhibitors” (Bioorg Med Chem, 2018)
